Reference: ChEMBL document CHEMBL5050861 (2021)
In brackets after ≈: the same amount, converted by molar mass.

Columns and labels:
[1] = organism: Homo sapiens; test: Inhibition of human GALK1 K252A/E253A double mutant relative to control; parameters: concentration or dose not given beside the values; settings: concentration not given here
[2] = Stability of compound in rat microsomes assessed as half-life; format: ADME, Microsome
[3] = Inhibition of human GALK1 K252A/E253A double mutant
[4] = Permeability of compound by PAMPA assay; format: ADME; settings: read-out: permeability
[5] = Inhibition of recombinant mouse GALK1 using ATP as substrate incubated for 1 hr and measured by Kinase-Glo assay
[6] = Kinetic aqueous solubility of the compound; format: physicochemical; settings: buffer; read-out: Kinetic_solubility
[7] = target: Galactokinase (Homo sapiens, UniProt P51570); test: Inhibition of recombinant human GALK1 using ATP as substrate incubated for 1 hr and measured by Kinase-Glo assay
Chain of Galactokinase (P51570 whole entry): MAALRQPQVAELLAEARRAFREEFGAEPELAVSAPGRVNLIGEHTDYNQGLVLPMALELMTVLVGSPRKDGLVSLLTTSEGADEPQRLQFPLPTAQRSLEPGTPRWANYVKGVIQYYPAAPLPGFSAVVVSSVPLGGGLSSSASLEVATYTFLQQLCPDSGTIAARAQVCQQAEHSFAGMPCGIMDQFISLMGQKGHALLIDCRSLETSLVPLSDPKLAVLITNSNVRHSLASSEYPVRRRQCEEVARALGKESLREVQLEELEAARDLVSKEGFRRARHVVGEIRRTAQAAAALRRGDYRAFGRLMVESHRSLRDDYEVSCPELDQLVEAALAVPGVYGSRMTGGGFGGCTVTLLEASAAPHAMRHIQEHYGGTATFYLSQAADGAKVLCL

SMILES	inhibition [1] [%]	half-life [2] [min]	IC50 ([3]; read-out: IC50) [µM]	Papp [4] [×10⁻⁶ cm/s]	IC50 ([5]; read-out: IC50) [µM]	solubility kinetic [6] [µg/mL]	IC50 [7]	IC50 [5]	IC50 [3]	IC50 ([7]; read-out: IC50) [µM]
CC1=C(C(=O)Nc2cc(C(=O)O)ccn2)C(c2ccc(F)cc2Cl)N=C(Nc2nc3ccc(F)cc3o2)N1 (stereo unspecified)	100	> 30	0.258	< 1	4.32	40.6 (≈ 75.3 µM)	–	–	–	–
CC1=C(C(=O)Nc2cc(C(=O)O)ccn2)C(c2ccccc2Cl)N=C(Nc2nc3cccc(C)c3o2)N1 (stereo unspecified)	100	> 30	0.365	< 10	6.85	> 76	–	–	–	–
COc1ccc(C2N=C(Nc3nc4ccc(F)cc4o3)NC(C)=C2C(=O)Nc2cc(C(=O)O)ccn2)c(Cl)c1 (stereo unspecified)	100	> 30	0.3	< 10	3.06	8.3 (≈ 15.1 µM)	–	–	–	–
CC1=C(C(=O)Nc2cc(C(=O)O)ccn2)C(c2ccccc2Cl)N=C(Nc2nc3cc(Cl)ccc3o2)N1 (stereo unspecified)	100	> 30	1.7	< 1	6.11	35.2 (≈ 65.5 µM)	–	–	–	–
CC1=C(C(=O)Nc2cc(C(=O)O)ccn2)C(c2cccc(C(F)(F)F)c2)N=C(Nc2nc3ccc(F)cc3o2)N1 (stereo unspecified)	90	> 30	> 15	< 1	–	60.1 (≈ 108 µM)	–	Not Active	–	–
CC1=C(C(=O)Nc2cc(C(=O)O)ccn2)C(c2ccccc2Cl)N=C(Nc2nc3c(Cl)cccc3o2)N1 (stereo unspecified)	85	> 30	5.8	< 1.3	13.7	< 1	–	–	–	–
CC1=C(C(=O)Nc2cc(C(=O)O)ccn2)C(c2cccc(F)c2Cl)N=C(Nc2nc3ccc(F)cc3o2)N1 (stereo unspecified)	100	< 10	1.8	< 10	15.3	< 10000	–	–	–	–
CC1=C(C(=O)Nc2cc(C(=O)O)ccn2)C(c2ccccc2Cl)N=C(Nc2nc3cccc(Cl)c3o2)N1 (stereo unspecified)	100	> 30	1	< 1	9.68	57.5 (≈ 107 µM)	–	–	–	–
COc1cccc(C2N=C(Nc3nc4ccc(F)cc4o3)NC(C)=C2C(=O)Nc2cc(C(=O)O)ccn2)c1Cl (stereo unspecified)	100	> 30	5.4	< 1	19.3	> 81	–	–	–	–
CC1=C(C(=O)Nc2cc(C(=O)O)ccn2)C(c2ccccc2Cl)N=C(Nc2nc3cccc(F)c3o2)N1 (stereo unspecified)	100	> 30	1	< 1	8.63	> 77	–	–	–	–
CC1=C(C(=O)Nc2cc(C(=O)O)ccn2)C(c2ccccc2Br)N=C(Nc2nc3ccc(F)cc3o2)N1 (stereo unspecified)	100	> 30	0.235	< 10	3.85	36 (≈ 63.7 µM)	–	–	–	–
CC1=C(C(=O)Nc2cc(C(=O)O)ccn2)C(c2cccc(S(N)(=O)=O)c2)N=C(Nc2nc3ccc(F)cc3o2)N1 (stereo unspecified)	75	> 30	> 15	< 10	38.5	> 84	–	–	–	–
CC1=C(C(=O)Nc2cc(C(=O)O)ccn2)C(c2cccc(C(N)=O)c2)N=C(Nc2nc3ccc(F)cc3o2)N1 (stereo unspecified)	90	> 30	3.8	< 1	21.7	> 78	–	–	–	–
CC1=C(C(=O)Nc2cc(C(=O)O)ccn2)C(c2cccc(C(F)(F)F)c2Cl)N=C(Nc2nc3ccc(F)cc3o2)N1 (stereo unspecified)	97	> 30	2.4	< 10	27.3	70.1 (≈ 119 µM)	–	–	–	–
COc1cccc2nc(NC3=NC(c4ccccc4Cl)C(C(=O)Nc4cc(C(=O)O)ccn4)=C(C)N3)oc12 (stereo unspecified)	80	> 30	> 15	< 1	–	65.7 (≈ 123 µM)	–	Not Active	–	–
CC1=C(C(=O)Nc2cc(C(=O)O)ccn2)C(c2cccc(Cl)c2Cl)N=C(Nc2nc3ccc(F)cc3o2)N1 (stereo unspecified)	100	> 30	3.6	< 10	21.7	55.5 (≈ 99.9 µM)	–	–	–	–
CC1=C(C(=O)Nc2cc(C(=O)O)ccn2)C(c2ccccc2Cl)N=C(Nc2nc3c(F)cccc3o2)N1 (stereo unspecified)	94	> 30	3.1	> 100	21.7	< 10000	–	–	–	–
CC1=C(C(=O)Nc2cc(C(=O)O)ccn2)C(c2ccc(C)cc2Cl)N=C(Nc2nc3ccc(F)cc3o2)N1 (racemic)	100	> 30	0.136	–	3.06	2.8 (≈ 5.23 µM)	–	–	–	–
COc1ccc2oc(NC3=NC(c4ccccc4Cl)C(C(=O)Nc4cc(C(=O)O)ccn4)=C(C)N3)nc2c1 (stereo unspecified)	100	> 30	2	< 1	12.2	> 79	–	–	–	–
CC1=C(C(=O)Nc2cc(C(=O)O)ccn2)[C@H](c2ccccc2Cl)N=C(Nc2nc3cccc(N)c3o2)N1	–	–	–	–	1.72	–	–	–	–	0.086
CC1=C(C(=O)Nc2cc(C(=O)O)ccn2)C(c2ccc(Cl)cc2Cl)N=C(Nc2nc3ccc(F)cc3o2)N1 (stereo unspecified)	85	> 30	0.345	< 1	3.85	< 1	–	–	–	–
CC1=C(C(=O)Nc2cc(C(=O)O)ccn2)C(c2ccccc2Cl)N=C(Nc2nc3cccc(C(F)(F)F)c3o2)N1 (stereo unspecified)	100	> 30	> 15	< 1	48.5	61.1 (≈ 107 µM)	–	–	–	–

Other lines, results leading:

inhibition [1] [%]	half-life [2] [min]	IC50 ([3]; read-out: IC50) [µM]	Papp [4] [×10⁻⁶ cm/s]	IC50 ([5]; read-out: IC50) [µM]	solubility kinetic [6] [µg/mL]	IC50 [7]	IC50 [5]	IC50 [3]	IC50 ([7]; read-out: IC50) [µM]	SMILES
100	> 30	0.611	< 1	3.06	< 1	–	–	–	–	CC1=C(C(=O)Nc2cc(C(=O)O)ccn2)C(c2ccccc2Cl)N=C(Nc2nc3cc(C)ccc3o2)N1 (stereo unspecified)
100	> 30	2.25	< 10	6.11	6.3 (≈ 11.7 µM)	–	–	–	–	CC1=C(C(=O)Nc2cc(C(=O)O)ccn2)C(c2ccccc2Cl)N=C(Nc2nc3ccc(Cl)cc3o2)N1 (stereo unspecified)
–	19.3	–	–	13.7	< 1	Not Active	–	–	–	CCOC(=O)C1=C(C)NC(Nc2nc3ccccc3o2)=NC1c1ccccc1Cl (stereo unspecified)
–	25.6	–	–	–	< 1	Not Active	Not Active	–	–	COC(=O)c1ccnc(NC(=O)C2=C(C)NC(Nc3nc4ccccc4o3)=N[C@@H]2c2ccccc2Cl)c1
–	8.73	–	–	–	40.5 (≈ 85.1 µM)	Not Active	Not Active	–	–	CC1=C(C(=O)NCc2cn(C)cn2)[C@@H](c2ccccc2Cl)N=C(Nc2nc3ccccc3o2)N1
100	> 30	5.5	10	21.7	> 76	–	–	–	–	CC1=C(C(=O)Nc2cc(C(=O)O)ccn2)C(c2ccccc2Cl)N=C(Nc2nc3cc(N)ccc3o2)N1 (stereo unspecified)
–	–	–	–	–	–	Not Active	Not Active	–	–	COC(=O)c1ccccc1NC(=O)C1=C(C)NC(Nc2nc3ccccc3o2)=NC1c1ccccc1Cl (stereo unspecified)
100	< 10	3.6	< 10	17.2	< 10000	–	–	–	–	CC1=C(C(=O)Nc2cc(C(=O)O)ccn2)C(c2ccccc2Cl)N=C(Nc2nc3cc(F)ccc3o2)N1 (stereo unspecified)
98	8.87	1.4	–	6.85	42 (≈ 88.2 µM)	–	–	–	–	CC1=C(C(=O)NCc2cncn2C)C(c2ccccc2Cl)N=C(Nc2nc3ccccc3o2)N1 (stereo unspecified)
48	4.52	–	< 10	13.7	< 1	–	–	Not Active	–	CC1=C(C(=O)NCc2nc3ccccc3n2C)C(c2ccccc2Cl)N=C(Nc2nc3ccccc3o2)N1 (stereo unspecified)
57	24	0.97	< 10	13.7	< 1	–	–	–	–	CC1=C(C(=O)Nc2ccccc2)C(c2ccccc2Cl)N=C(Nc2nc3ccccc3o2)N1 (stereo unspecified)
96	> 30	3.4	–	7.69	< 1	–	–	–	–	CC1=C(C(=O)Nc2nncs2)C(c2ccccc2Cl)N=C(Nc2nc3ccccc3o2)N1 (stereo unspecified)
100	> 30	5.5	< 1.3	17.2	3.5 (≈ 6.77 µM)	–	–	–	–	CC1=C(C(=O)Nc2cc(C(=O)O)ccn2)C(c2ccccc2Cl)N=C(Nc2nc3c(C)cccc3o2)N1 (stereo unspecified)
96	> 30	3.1	< 1	6.11	59.1 (≈ 118 µM)	–	–	–	–	CC1=C(C(=O)Nc2cccc(C(=O)O)c2)C(c2ccccc2Cl)N=C(Nc2nc3ccccc3o2)N1 (stereo unspecified)
90	14.6	0.77	–	7.69	26.6 (≈ 55.9 µM)	–	–	–	–	CC1=C(C(=O)NCc2cn(C)cn2)C(c2ccccc2Cl)N=C(Nc2nc3ccccc3o2)N1 (racemic)
100	> 30	6.9	< 1	17.2	34.4 (≈ 66.6 µM)	–	–	–	–	CC1=C(C(=O)Nc2cc(C(=O)O)ccn2)C(c2ccccc2Cl)N=C(Nc2nc3ccc(C)cc3o2)N1 (stereo unspecified)
99	> 30	1.7	< 1	–	> 75	–	–	–	–	CC1=C(C(=O)Nc2ncc(C(=O)O)s2)C(c2ccccc2Cl)N=C(Nc2nc3ccccc3o2)N1 (stereo unspecified)
94	6.42	11	> 1110	13.7	23 (≈ 48.3 µM)	–	–	–	–	CC1=C(C(=O)NCc2nccn2C)C(c2ccccc2Cl)N=C(Nc2nc3ccccc3o2)N1 (stereo unspecified)
